The text below walks through data of publication PMC9413514, “Accessing Lipophilicity and Biomimetic Chromatography Profile of Biologically Active Ingredients of Botanicals Used in the Treatment of Inflammatory Bowel Disease” (Pharmaceuticals, 2022).

Data set [1] has as its target T1, human serum albumin (HSA) (Homo sapiens, UniProt P02768).
T1 construct: purchased ChromTech (Cedex, France) Chiralpak-HSA
The experiment in a line: HSA-HPAC assay (plasma protein binding). The following applies: Chiralpak-HSA, pH 7.4, 25 °C; spread is RSD in %. The data set is classed as in vitro ADME. An excerpt:
The gradient retention times obtained by HSA-HPAC and AGP-HPAC assays were standardized using a calibration set of compounds with known percentage of plasma protein binding data and procedure described in our previously published study. […] This verification assured that the protein affinity indices obtained by HPAC assays depict not only unspecific generally lipophilicity-driven interactions, but also highly specific recognition forces responsible of enantioselectivity.
(§1) Stock solutions of analytes and calibration standards were prepared by dissolving 10 mg of each solute in 10 mL of methanol and kept at 4 °C. Working solutions were freshly prepared at the beginning of each day by dilution of the stock solutions to 100 μg/mL with methanol for TLC measurements or mobile phase for HPLC measurements. Before use, the samples were sonicated (Elmasonic XtraTT, Elma Schmidbauer) for 10 min at 25 °C and all working solutions were filtered through 0.2 µm polyethersulfone filters (Obrnuta faza). To protect analytes from photodegradation, the amber glass HPLC vials were used.
The binding of biologically active compounds to the plasma proteins was investigated using affinity chromatographic columns by ChromTech (Cedex, France) containing immobilized human serum albumin (HSA) (Chiralpak-HSA, length 50 mm, i.d. 4.6 mm, particle size 5 µm) and α1-acid glycoprotein (AGP) (Chiralpak-AGP, length 50 mm, i.d. 4.6 mm, particle size 5 µm) and Agilent HPLC 1100 instrument. The 20 mM potassium phosphate buffer with the pH adjusted to 7.4 and iso-propanol were used as mobile phase components A and B. Retention data were collected at 25.0 ± 0.1 °C using gradient program as follows: 0 min/0% B, 6 min/30% B, 15 min/30% B and 20 min/0% B. Injection volume was set at 10 µL and the measurements were carried out at 25.0 ± 0.1 °C with flow rate of 1.5 mL/min. The absorbance of the analytes during a chromatographic run was collected in the spectral range 200–400 nm, and the detection wavelength for each analyte was the one providing the maximum peak height.

Data set [2] can be described thus: Miniaturized shake-flask method (n-octanol/PBS pH 7.4) with HPLC analysis. The data set is classed as physicochemical. The following applies: for Δ log D7.4 (lower than curcumin): compared to curcumin; for logD at 1 h: n-octanol/PBS 20 mM pH 7.4, 25 °C, spread is RSD in %, read-out: log D7.4 ± RSD (%) (n = 3). Here is the method:
Stock solution of biologically active ingredients of botanicals used in IBD treatment were prepared using dimethylsulfoxide in concentration of 2 mg/mL. Working solutions were prepared daily by dilution of the stock solutions with PBS (20 mM, pH 7.4) pre-saturated with n-octanol. Before the injection into the HPLC system all solutions were sonicated for 15 min at room temperature in Elmasonic XtraTT (Elma Schmidbauer, Singen, Germany) and filtered through 0.2 μm polyethersulfone filters (Obrnuta faza, Pazin, Croatia).
The pre-saturated solutions of n-octanol and PBS (20 mM, pH 7.4) were used for determination of logarithm of distribution coefficient (log D7.4). The n-octanol and aqueous phase (mixture 1:1, v/v) were mutually saturated for 24 h in an orbital shaker-incubator ES-20/60 (Biosan, Riga, Latvia) at 100 oscillations per min at 25.0 ± 0.1 °C. The prepared mixture was left resting for at least 12 h in the thermostat at 25.0 ± 0.1 °C to ensure complete separation of the two phases. Until analysis, separated saturated solutions were kept in refrigerator at 4 °C.
Shake-flask procedure was conducted in amber 2 mL HPLC vials. 300 μL of the working solution was added to 1500 μL of n-octanol pre-saturated with PBS. To prevent material loss due to volatilisation, the two-phase system nearly filled the entire volume of the test vessels. All n-octanol–buffer mixtures were first vortexed for 1 min and then shaken for 1 h (150 oscillations per min) at room temperature (25.0 ± 0.1 °C) to reach equilibrium and phase distribution. Afterward, the samples were centrifuged using a Z 326 K tabletop centrifuge (HERMLE Labortechnik, Wehingen, Germany) for 30 min at 4000× g and 25 °C to ensure that possible emulsions were removed.
After equilibration and phase separation, the aqueous phase of all samples was analysed on an Agilent HPLC 1100 (Agilent Technologies, Waldbronn, Germany) with diode array detection. Analysis was conducted with a Zorbax SB C18 column (length 150 mm, i.d. 4.6 mm, particle size 5 μm) by Agilent Technologies. 10 min chromatographic runs were performed at 25.0 ± 0.1 °C in isocratic mode using a methanol/water mixture (60/40, v/v) with addition of 0.1% of formic acid as mobile phase modifier at a flow rate of 1.0 mL/min. The mobile phase was filtered through a membrane filter, no. 66, diameter 47 mm, pore size 0.45 µm (Supelco, Bellefonte, PA, USA). The vials were placed in the rack on the autosampler at 25 °C. The injection volume was 10 µL, with a needle offset of 0.5 mm. To avoid any carryover of the analyte-containing n-octanol phase, the outside of the syringe was subsequently washed in methanol before injection. The absorbance of the analytes during a chromatographic run was collected in the spectral range 200–400 nm, and the detection wavelength for each analyte was the one providing the maximum peak height.

The nature of data set [3]: C18-HPLC assay (hydrophobicity). The settings on record: for logk0 (HPLC hydrophobicity index, intercept of linear equation): Zorbax SB C18, PBS pH 7.4/methanol, extrapolated to zero organic modifier. It counts as physicochemical. Here is the method:
The principles of hydrophobicity determination by HPLC are characterized by the logarithm of retention factor (k), defined as logk = log (tR−t0)/t0, where tR is retention time of analyte and t0 is the dead time. […] The percentage of methanol in the mobile phase was optimized so that the analytes had retention time between dead time and a maximum of 20 min keeping the analysis time as short as possible, and the peak shape acceptable (peak asymmetry factor were between 0.8 and 1.2). […] The HPLC hydrophobicity index, logk0, was determined by extrapolation of the organic modifier in the mobile phase to its zero concentration.
as §1
C18-HPLC assay was carried out at Agilent HPLC 1100 and Zorbax SB C18 chromatographic column (length 250 mm.6 mm, particle size 5 µm) by Agilent Technologies, while IAM-HPLC assay was conducted using IAM P.C.DD2 chromatographic column (length 50 mm, i.d. 3.0 mm, particle size […]) by Regis Technologies (Morton Grove, IL, USA). Retention data were collected at 25.0 ± 0.1 °C using isocratic method working with mobile phases, mixing the respective amounts of PBS (10 mM, pH 7.4) and methanol from 35% to 80% of organic solvent in 5% increment. Each mobile phase was shaken vigorously and filtrated through membrane filter, no. 66, diameter 47 mm, pore size 0.45 µm by Supelco and degassed by sonication 5 min before use. The injection volume was set at 10 µL, and the measurements were carried out at flow rate 1.0 mL/min. Natrium nitrate solution (0.1 mg/mL in mobile phase) was used as the marker of dead-time. The absorbance of the analytes during a chromatographic run was collected in the spectral range of 200–400 nm, and the detection wavelength for each analyte was the one providing the maximum peak height.

T1 sequence (P02768 25-609): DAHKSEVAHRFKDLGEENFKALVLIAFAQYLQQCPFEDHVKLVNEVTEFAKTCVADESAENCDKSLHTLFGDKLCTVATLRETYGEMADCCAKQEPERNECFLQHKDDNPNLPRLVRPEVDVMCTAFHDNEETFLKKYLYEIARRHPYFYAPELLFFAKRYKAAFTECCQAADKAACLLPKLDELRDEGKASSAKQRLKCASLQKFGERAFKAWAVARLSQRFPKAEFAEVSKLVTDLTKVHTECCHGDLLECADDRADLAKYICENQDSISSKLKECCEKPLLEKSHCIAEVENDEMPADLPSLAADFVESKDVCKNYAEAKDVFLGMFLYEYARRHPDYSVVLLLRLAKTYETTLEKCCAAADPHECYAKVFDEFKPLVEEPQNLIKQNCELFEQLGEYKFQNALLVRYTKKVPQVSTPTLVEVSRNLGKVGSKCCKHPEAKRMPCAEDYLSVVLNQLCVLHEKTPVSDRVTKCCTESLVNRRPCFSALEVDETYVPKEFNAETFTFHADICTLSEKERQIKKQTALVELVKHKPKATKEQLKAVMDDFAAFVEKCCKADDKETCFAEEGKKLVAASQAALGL

As for `COc1cc(/C=C/C(=O)CC(=O)/C=C/c2ccc(O)cc2)ccc1O` [Demetoxycurcumin, demetoxycurcumin], the “HSA Binding ± RSD (%) (n = 3)” value in data set [1] came to 97.97 ± 0.35%. For the same compound, in data set [2], the “Δ log D7.4 (lower than curcumin)” value was 0.42 units and the logD at 1 h stood at 1.52. The “logk0 (HPLC hydrophobicity index, intercept of linear equation)” value in data set [3] is on record as “y = −0.0448 x + 3.4349”.
With `O=C(C=Cc1ccc(O)cc1)CC(=O)C=Cc1ccc(O)cc1` [Bisdemetoxycurcumin, bisdemetoxycurcumin], in data set [1], the “HSA Binding ± RSD (%) (n = 3)” value is reported as 98.37 ± 0.10%. Further, in data set [2], the “Δ log D7.4 (lower than curcumin)” value was found to be 0.22 units and the logD at 1 h was determined as 1.72. Further, the “logk0 (HPLC hydrophobicity index, intercept of linear equation)” value in data set [3] is reported as “y = −0.0447 x + 3.4174”.
For the compound `O=C(/C=C/C=C/c1ccc2c(c1)OCO2)N1CCCCC1` [Piperine, piperine], the “HSA Binding ± RSD (%) (n = 3)” value in data set [1] is given as 95.48 ± 0.41%. Also, the logD at 1 h in data set [2] was 1.67. In addition, the “logk0 (HPLC hydrophobicity index, intercept of linear equation)” value in data set [3] was “y = −0.0394 x + 3.4218”.
The like results for `C=C1CC[C@@H]2[C@](C)(CO)[C@H](O)CC[C@@]2(C)[C@@H]1C/C=C1/C(=O)OC[C@H]1O` [Andrographolide, andrographolide] were, in that order, 80.07 ± 0.74%, 1.32 and “y = −0.0271 x + 1.9065”.
On to `C=C1CC[C@@H]2[C@](C)(CO[C@@H]3O[C@H](CO)[C@@H](O)[C@H](O)[C@H]3O)CCC[C@@]2(C)[C@@H]1CCC1=CCOC1=O` [Neoandrographolide, neoandrographolide], for which the “HSA Binding ± RSD (%) (n = 3)” value in data set [1] is given as 87.71 ± 0.41%. Moreover, the “Δ log D7.4 (increase compared to andrographolide)” value in data set [2] (compared to andrographolide) was 0.19 units. Further, the logD at 1 h in data set [2] was 1.51. Moreover, the “logk0 (HPLC hydrophobicity index, intercept of linear equation)” value in data set [3] was “y = −0.0359 x + 2.8595”. Besides, the “difference in logk0 values versus andrographolide” value in data set [3] (compared to andrographolide) came out at 0.95 units.
